For 25 molecules, EC50 and Emax results are on record in patent US12275733B2, “Substituted pyrido[3,4-b]indoles for the treatment of cartilage disorders” (Sanofi, priority 2016, dated 2025).

Bounds are passed on as bounds.

For this assay, the system named is ATDC5 cells. Description: Chondrogenesis activity assay in ATDC5 cells (collagen type II induction, immunofluorescence). The class given is cell-based, mouse. The following applies: Mus musculus; for EC50: collagen type II induction in ATDC5 cells, concentration reaching 50% of maximum induction; for Emax: maximum percent induction of collagen type II relative to internal reference compound at 10 μM, ATDC5 cells. An outline of the steps: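 Mouse ATDC5 cells in insulin (10 μg/ml)-containing DMEM/F12 differentiation medium with 5% FCS were exposed to compound, typically 40 nM–10 μM at 0.1% DMSO, for 4 days at 37 °C. Intracellular collagen type II was quantified by Alexa Fluor 488 immunostaining with high-content imaging, relative to DMSO and a 10 μM reference compound.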

By EC50 is commonly meant the concentration that produces a half-maximal response. Broadly, the Emax is the maximal effect, on the per cent scale that the assay sets. For `Cc1nccc2c1[nH]c1c(-c3ccc(OC4CCOC4)cc3)cc(Cl)cc12` (centres unmarked) [Example 197, 6-Chloro-1-methyl-8-[4-(tetrahydro-furan-3-yloxy)-phenyl]-9H-pyrido[3,4-b]indole], a half-maximal response (EC50) required 0.63 µM and the maximal effect (Emax) is more than 80%.

For the molecule `Cc1cc(-c2cc(Cl)cc3c2[nH]c2c(C)nccc23)ccc1OC1CCOC1` (centres unmarked) [Example 198, 6-Chloro-1-methyl-8-[3-methyl-4-(tetrahydrofuran-3-yloxy)-phenyl]-9H-pyrido[3,4-b]indole], the EC50 came out at 1.8 µM and the Emax was in the range of 20 to 50%.

Take `COCCn1c2cnccc2c2cc(Cl)cc(-c3ccc(OC)cc3)c21` [Example 201, 6-Chloro-9-(2-methoxy-ethyl)-8-(4-methoxy-phenyl)-9H-pyrido[3,4-b]indole]: the response was half-maximal at 0.6 µM (EC50) and the Emax was more than 80%.

Take `Cc1nccc2c1[nH]c1c(-c3ccc(OCc4ccccn4)cc3)cc(Cl)cc12` [Example 202, 6-Chloro-1-methyl-8-[4-(pyridin-2-ylmethoxy)-phenyl]-9H-pyrido[3,4-b]indole]: a half-maximal response (EC50) required 0.64 µM and the Emax is more than 80%.

As to `CCOC(=O)c1ccc2[nH]c(-c3cc(Cl)cc4c3[nH]c3c(C)nccc34)cc2c1` [Example 203, 2-(6-Chloro-1-methyl-9H-pyrido[3,4-b]indol-8-yl)-1H-indole-5-carboxylic acid ethyl ester], the EC50 is more than 10 µM and the Emax is less than 20%.

In the case of `Cc1nccc2c1[nH]c1c(-c3ccc(CC(=O)N4CCC(N5CCCC5)CC4)cc3)cc(Cl)cc12` [Example 204, 2-[4-(6-Chloro-1-methyl-9H-pyrido[3,4-b]indol-8-yl)-phenyl]-1-(4-pyrrolidin-1-yl-piperidin-1-yl)-ethanone], the EC50 was 0.19 µM and the Emax fell in the range of 50 to 80%.

For the molecule `Cc1nccc2c1[nH]c1c(-c3ccc(Oc4ccccc4)cc3)cc(Cl)cc12` [Example 205, 6-Chloro-1-methyl-8-(4-phenoxy-phenyl)-9H-pyrido[3,4-b]indole], the midpoint of the response, the EC50, lay at 3.3 µM and the Emax is more than 80%.

The molecule `CCn1c2c(-c3cnn(Cc4ccccc4)c3)cc(Cl)cc2c2ccnc(C)c21` [Example 207, 8-(1-Benzyl-1H-pyrazol-4-yl)-6-chloro-9-ethyl-1-methyl-9H-pyrido[3,4-b]indole] displayed an EC50 of 1.6 µM and a maximal effect (Emax) of more than 80%.

The molecule `CCn1c2c(-c3cnn(Cc4ccccc4)c3)cc(Br)cc2c2ccnc(C)c21` [Example 208, 8-(1-Benzyl-1H-pyrazol-4-yl)-6-bromo-9-ethyl-1-methyl-9H-pyrido[3,4-b]indole] displayed an EC50 of 1.9 µM and an Emax of more than 80%.

For `CCc1nc(C)cc2c3cc(Br)cc(-c4cnn(C)c4)c3n(CC)c12` [Example 210, 6-Bromo-1,9-diethyl-3-methyl-8-(1-methyl-1H-pyrazol-4-yl)-9H-pyrido[3,4-b]indole], the EC50 was more than 3.3 µM and the Emax is less than 20%.

Molecule `CCc1cc2c([nH]c3c(-c4ccc(OC)cc4)cc(Br)cc32)c(C)n1` [Example 211, 6-Bromo-3-ethyl-8-(4-methoxy-phenyl)-1-methyl-9H-pyrido[3,4-b]indole] displayed an EC50 of more than 3.3 µM and an Emax of less than 20%.

In the case of `Cc1nccc2c1[nH]c1c(-c3ccnc(N)c3)cc(Cl)cc12` [Example 215, 4-(6-Chloro-1-methyl-9H-pyrido[3,4-b]indol-8-yl)-pyridin-2-ylamine], the EC50 came to 0.23 µM and the Emax was more than 80%.

`CCn1c2c(-c3ccnc(N4CCN(C)CC4)c3)cc(Cl)cc2c2ccnc(C)c21` [Example 219, 6-Chloro-9-ethyl-1-methyl-8-[2-(4-methyl-piperazin-1-yl)-pyridin-4-yl]-9H-pyrido[3,4-b]indole] registered an EC50 of more than 3.3 µM and an Emax of less than 20%.

Molecule `CCn1c2c(-c3cccc(C(N)=O)c3)cc(Cl)cc2c2ccnc(C)c21` [Example 220, 3-(6-Chloro-9-ethyl-1-methyl-9H-pyrido[3,4-b]indol-8-yl)-benzamide] yielded a concentration giving a half-maximal response (EC50) of more than 10 µM and an Emax of 20 to 50%.

The molecule `COc1cc(-c2cc(Cl)cc3c2[nH]c2c(C)nccc23)ccc1OCc1ccccn1` [Example 221, 6-Chloro-8-[3-methoxy-4-(pyridin-2-ylmethoxy)-phenyl]-1-methyl-9H-pyrido[3,4-b]indole] returned an EC50 of more than 3.3 µM and an Emax of 20 to 50%.

`COc1cc(-c2cc(Cl)cc3c2[nH]c2c(C)nccc23)ccc1OCc1ccccc1` [Example 222, 8-(4-Benzyloxy-3-methoxy-phenyl)-6-chloro-1-methyl-9H-pyrido[3,4-b]indole] came in with an EC50 of more than 10 µM and an Emax of less than 20%.

Molecule `Cc1nccc2c1[nH]c1c(-c3ccc(CN4CCOCC4)cc3)cc(Cl)cc12` [Example 224, 6-Chloro-1-methyl-8-(4-morpholin-4-ylmethyl-phenyl)-9H-pyrido[3,4-b]indole] came in with an EC50 of 0.31 µM and an Emax of more than 80%.

In the case of `Cc1nccc2c1[nH]c1c(-c3ccc(OC4CCCC4)cc3)cc(Cl)cc12` [Example 225, 6-Chloro-8-(4-cyclopentyloxy-phenyl)-1-methyl-9H-pyrido[3,4-b]indole], the EC50 was found to be 1.7 µM and the Emax was more than 80%.

`Cc1nccc2c1[nH]c1c(-c3ccc(OCc4cccc(F)n4)cc3)cc(Cl)cc12` [Example 226, 6-Chloro-8-[4-(6-fluoro-pyridin-2-ylmethoxy)-phenyl]-1-methyl-9H-pyrido[3,4-b]indole] gave an EC50 of 0.19 µM and an Emax of 50 to 80%.

`Cc1nccc2c1[nH]c1c(-c3ccnn3C)cc(Cl)cc12` [Example 227, 6-Chloro-1-methyl-8-(2-methyl-2H-pyrazol-3-yl)-9H-pyrido[3,4-b]indole]: the EC50 was 0.33 µM and the Emax is more than 80%.

For the molecule `Cc1nccc2c1[nH]c1c(-c3ccc(OCC(O)CN4CCCCC4)cc3)cc(Cl)cc12` (centres unmarked) [Example 229, 1-[4-(6-Chloro-1-methyl-9H-pyrido[3,4-b]indol-8-yl)-phenoxy]-3-piperidin-1-yl-propan-2-ol], a half-maximal response (EC50) required 0.28 µM and the Emax was in the range of 50 to 80%.

As to `Cc1nccc2c1[nH]c1c(-c3ccc(OCCc4ccccc4)cc3)cc(Cl)cc12` [Example 231, 6-Chloro-1-methyl-8-(4-phenethyloxy-phenyl)-9H-pyrido[3,4-b]indole], the EC50 is more than 10 µM and the Emax fell in the range of 20 to 50%.

For `Cc1nccc2c1[nH]c1c(-c3ccc4[nH]ncc4c3)cc(Cl)cc12` [Example 232, 6-Chloro-8-(1H-indazol-5-yl)-1-methyl-9H-pyrido[3,4-b]indole], a half-maximal effect (EC50) was put at 0.33 µM and the Emax is more than 80%.

As for `CCn1c2c(-c3ccn(CCn4cccn4)n3)cc(Cl)cc2c2ccnc(C)c21` [Example 233, 6-Chloro-9-ethyl-1-methyl-8-[1-(2-pyrazol-1-yl-ethyl)-1H-pyrazol-3-yl]-9H-pyrido[3,4-b]indole], the EC50 was more than 10 µM and the maximal response (Emax) was in the range of 20 to 50%.

`CCn1c2c(-c3cc[nH]n3)cc(Cl)cc2c2ccnc(C)c21` [Example 234, 6-Chloro-9-ethyl-1-methyl-8-(1H-pyrazol-3-yl)-9H-pyrido[3,4-b]indole] displayed an EC50 of 5.8 µM and an Emax of 50 to 80%.
